Laboratory results taken from patent US6156762A, “Indolomorphinan derivative and agent for curing and preventing cerebral disorder” (Toray Industries, Inc., priority 1997, dated 2000).

Key:
cultured nerve cells = assay: Action of protecting cultured nerve cells from glutamic acid toxicity (LDH leakage); type: cell-based, Wistar rat; conditions: rat fetal cerebral cortex cells, 10 mM glutamic acid, 24 hours, read-out: ED50 (the source's name)
Text: It is known that when the blood flow to the brain is temporarily clogged due to cerebral ischemia, hypoxia, or an trauma, delayed cerebral neuronal death is induced [Document: Brain Research, Vol. 239, 57 (1982)]. A possible cause of such damage of the cerebral nerve cells is excitatory toxicity due to an excitatory neutotransmitter such as glutamic acid or the like, which is excessively released with ischemia [Document: Trends in Neuroscience, vol. 10, 299 (1987)]. […] This is a problem to be solved by the invention. This action was evaluated by using the in vitro evaluation system which will be described below.
A fetus was taken from the abdomen of a Wistar female rat on the 18 to 19th day of pregnancy under aseptic conditions, and the head of the fetus was opened to extract the brain. The brain was placed in an ice-cooled L-15 medium, and the cerebral cortex was separated under a microscope. The cerebral cortexes of about 30 rats were cut into pieces, and then suspended in 10 ml of a 0.25% trypsin solution and 0.2 ml of a 0.01% DNase solution, followed by culture at 37° C. for 30 minutes. Then, 2 ml of serum was added to the solution, and immediately the resultant mixture was centrifuged at 120 rpm for 2 minutes to separate the precipitates. To the precipitates was added 7 ml of a DF medium (a medium obtained by adding 20 nM of transferrin, 5 μg/ml of insulin, 20 nM of progesterone,60 nM of selenite, 50 U/ml of penicillin, and 50 U/ml of streptomycin to a mixture equivalent amounts of Dulbecco modified Eagle medium and F-12 medium), followed by 20 pipetting operations using a 10-ml plastic pipette to obtain a cell suspension. The cell suspension was filtered with nylon mesh (pore diameter 43 μm) to fractionate isolated cells. The thus-obtained isolated cells were diluted with a DF medium to a concentration of 6.0×10^5 cells/ml, and 500 μl of the diluted cells was inoculated in each of the 48 wells of a 48-well culture plate precoated with polylysine, followed by culture at 37° C. for 1 day in the presence of 5% of CO2. On the 2nd day, the medium was changed to a new DF medium, and 10 μl of a solution of 0.5M glutamic acid in distilled water was added to each of the wells (the final glutamic acid concentration was 10 mM), followed by further culture at 37° C. for 24 hours in the presence 5% of CO2. A test compound was dissolved in distilled water, 10% or 100% DMSO or 10% methanol, and 5 μl of the solution was added to each of the wells immediately before glutamic acid was added. As an index of nerve cell damage, the enzyme activity of lactic acid dehydrogenase (LDH) leaking from the damaged cells into the medium was measured. For each of the test compounds, the LDH leakage was measured at each of concentrations to determine a dose-response curve by the modified Cochran-Armitige method. The 50% effective dose (ED50) of each of the test compounds we determined from the curve.

[1] = tested on: middle cerebral artery ischemia model of rat; assay: Infarction inhibiting action in middle cerebral artery ischemia (MCAo-recirculation) model of rat; type: in vivo; conditions: ip, 24 h, 3 mg/kg i.p. 10 minutes before occlusion and 1 hour after recirculation, infarction volume one day after, vs control group, read-out: Rate of inhibition of infarction
Text: It is also known that, in this way, in the acute stage of cerebral infarction, the lesion proceeds to the peripheral tissue from the core of infarction, and death of the nerve cells is extended with the passage of several days. This possible not only extends and creates grave aftereffects, and causes loss of motor and mental function, but also finally critically influences on the life. As an in vivo experimental model of cerebral infarction which is capable of precisely evaluating the clinical effect of a medicine in conformity with clinical conditions of the disease of a patient of cerebral infarction, the middle cerebral artery occlusion (MCAo)-recirculation model comprising an embolus with a yarn using Wister rates may be used [Document: Japan Journal of Stroke, vol. 8, 1 (1986)]. […] This action was evaluated by applying the MCAo model by the method which will be described below.
In rats of 10 weeks old, after etherization, a median incision of the cervical region was made up to the right carotid artery bifurcation under 1.0% halothane anesthetization with care to preserve the vagus nerves. The common carotid artery and the external carotid artery were separated from the periphery connective tissue with the right carotid artery bifurcation as the center, and each of the arteries was ligated by a 6-0 silk yarn (Eto yarn). Further, a yarn was wound on the internal carotid artery origin in preparation for ligation and fixing after insertion of the embolus. Next, the common carotid artery was incised, and the embolus was inserted from the common carotid artery to the internal carotid artery by about 15 to 16 mm, and ligated and fixed to the internal carotid artery by the silk yarn at the end thereof near the nylon yarn. In this operation, the end of the embolus was inserted into the anterior cerebral artery by about 1 to 2 mm beyond the middle cerebral artery bifurcation, and the inlet of the middle cerebral artery was occluded by the body (resin part) of the embolus for 1 hours. In recirculation, the embolus with a yarn was removed to recirculate the blood flow to the middle cerebral artery. 3 mg/kg of each of test compounds was intraperitoneally administered 10 minutes before occlusion and 1 hour after recirculation of the blood flow. One day after occlusion and recirculation, the whole body was perfused with physiologic saline through the heart, and the brain was extracted. The extracted brain was cooled with ice and water for 5 minutes, and cut at intervals of 2.0 mm to form 7 sections of the cerebral coronal surface. Each of the sections was stained with TTC (Triphenyltetrazolium Chloride), and fixed by a 5% neutral buffer formalin solution. In each of the sections, the infarction area in the right cerebral hemisphere was measured by an image analyzer (Olympus), and the infarction was evaluated by volume (mm^3). The infarction volume was compared with the infarction volume of a control group to calculate the rate of inhibition of infarction.

SMILES	EC50 (cultured nerve cells) [nM]	inhibition in vivo at 3 mg/kg [1] [%]
NCCCn1c2c(c3ccc4ccccc4c31)C[C@@]1(O)[C@H]3Cc4ccc(O)c5c4[C@@]1(CCN3CC1CC1)[C@H]2O5 [Compound 25, 17-cyclopropylmethyl-3,14β-dihydroxy-6,7-dehydro-4,5α-epoxy-6,7,2',3'-[1'-(3-aminopropyl)-6',7'-benzoindolo]morphinan]	300	15
O=C(NCCCn1c2c(c3ccccc31)C[C@@]1(O)[C@H]3Cc4ccc(O)c5c4[C@@]1(CCN3CC1CC1)[C@H]2O5)c1ccccc1 [Compound 61, 17-cyclopropylmethyl-3,14β-dihydroxy-6,7-dehydro-4,5α-epoxy-6,7,2',3'-[1'-(3-benzamidopropyl)indolo]morphinan]	140	29
O=C(NCCCn1c2c(c3ccc4ccccc4c31)C[C@@]1(O)[C@H]3Cc4ccc(O)c5c4[C@@]1(CCN3CC1CC1)[C@H]2O5)c1cccnc1 [Compound 66, 17-cyclopropylmethyl-3,14β-dihydroxy-6,7-dehydro-4,5α-epoxy-6,7,2',3'-[1'-(3-nicotinamidopropyl)-6',7'-benzoindolo]morphinan]	400	25
Oc1ccc2c3c1O[C@H]1c4c(c5ccc6ccccc6c5n4CCCNC(=S)NCc4ccccc4)C[C@@]4(O)[C@@H](C2)N(CC2CC2)CC[C@]314 [Compound 67, 17-cyclopropylmethyl-3,14β-dihydroxy-6,7-dehydro-4,5α-epoxy-6,7,2',3'-[1'-[3-(N'-benzylthioureido)propyl]-6',7'-benzoindolo]morphinan]	27	39
Oc1ccc2c3c1O[C@H]1c4c(c5ccc6ccccc6c5n4Cc4ccccc4)C[C@@]4(O)[C@@H](C2)N(CC2CC2)CC[C@]314 [Compound 69, 17-cyclopropylmethyl-3,14β-dihydroxy-6,7-dehydro-4,5α-epoxy-6,7,2',3'-(1'-benzyl-6',7'-benzoindolo)morphinan]	9.3	69
Oc1ccc2c3c1O[C@H]1c4c(c5ccc6ccccc6c5n4Cc4ccc(F)cc4)C[C@@]4(O)[C@@H](C2)N(CC2CC2)CC[C@]314 [Compound 70]	15	34
Cn1c2c(c3ccc4ccccc4c31)C[C@@]1(O)[C@H]3Cc4ccc(O)c5c4[C@@]1(CCN3CC1CC1)[C@H]2O5 [Compound 72, 17-cyclopropylmethyl-3,14β-dihydroxy-6,7-dehydro-4,5α-epoxy-6,7,2',3'-(1'-methyl-6',7'-benzoindolo)morphinan]	26	85
Cn1c2c(c3cc4c5c(cccc5c31)-c1ccccc1-4)C[C@@]1(O)[C@H]3Cc4ccc(O)c5c4[C@@]1(CCN3CC1CC1)[C@H]2O5 [Compound 77, 17-cyclopropylmethyl-3,14β-dihydroxy-6,7-dehydro-4,5α-epoxy-6,7,2',3'-(1'-methyl-5',6"-benzeno-6',7'-benzoindolo)morphinan]	160	84
Oc1ccc2c3c1O[C@H]1c4c(c5cc6c7c(cccc7c5n4Cc4ccccc4)-c4ccccc4-6)C[C@@]4(O)[C@@H](C2)N(CC2CC2)CC[C@]314 [Compound 79, 17-cyclopropylmethyl-3,14β-dihydroxy-6,7-dehydro-4,5α-epoxy-6,7,2',3'-(1'-benzyl-5',6"-benzeno-6',7'-benzoindolo)morphinan]	190	26
Oc1ccc2c3c1O[C@H]1c4c(c5ccc6ccccc6c5n4CCc4ccccc4)C[C@@]4(O)[C@@H](C2)N(CC2CC2)CC[C@]314 [Compound 80, 17-cyclopropylmethyl-3,14β-dihydroxy-6,7-dehydro-4,5α-epoxy-6,7,2',3'-[1'-(2-phenylethyl)-6',7'-benzoindolo]morphinan]	37	29
OCCn1c2c(c3ccc4ccccc4c31)C[C@@]1(O)[C@H]3Cc4ccc(O)c5c4[C@@]1(CCN3CC1CC1)[C@H]2O5 [Compound 81, 17-cyclopropylmethyl-3,14β-dihydroxy-6,7-dehydro-4,5α-epoxy-6,7,2',3'-[1'-(2-hydroxyethyl)-6',7'-benzoindolo]morphinan]	67	11
